The record followed here is US20260337187A1, “COMPOUNDS FOR TREATMENT OF INFLAMMATORY PROCESSES” (THORNE LIMITED, priority 2022, published 2026).

Holding throughout (assay type): cell-based
Data set [1] relates to SWAP-70. The data set is described as follows: FACS-FRET of SWAP-70 dimerization in living cells. Here is the method:
B2 was added to the cells 15 minutes prior to stimulation.
FACS-FRET of SWAP-70 in living cells: The method was in line with that previously described by Betaneli and Jessberger (2020). Briefly, two versions of SWAP-70, differently tagged with the fluorescent dyes Cerulean and Venus, were stably expressed in 293T cells. Upon activation of the cells, e.g., by sodium vanadate, SWAP-70 dimerizes. Thereby the two fluorophores associate and generate a fluorescence resonance energy transfer (FRET) signal, which is measured by FACS. FACS-FRET allows to analyze large numbers of cells simultaneously.
Two versions of SWAP-70, differently tagged with the fluorescent dyes Cerulean and Venus, were stably expressed in 293T cells. Upon activation of the cells, e.g., by sodium vanadate, SWAP-70 dimerizes. Thereby the two fluorophores associate and generate a fluorescence resonance energy transfer (FRET) signal, which is measured by FACS. FACS-FRET allows to analyze large numbers of cells simultaneously. […] B2 was added to the cells 15 minutes prior to stimulation.

The subject of data set [2] is human primary neutrophils. The data set is described as follows: Neutrophil NETosis (PMA or pyocyanin triggered, extracellular DNA, Sytox Green). The following applies: 3 hours (FIG. 3). The protocol:
The effect of 3 different concentrations (from left to right for each treatment: 100, 50 and 20 μM) of B2 is shown as % reduction compared to untreated control; average of 3 experiments.
Neutrophil NETosis: Neutrophil production of extracellular traps, NETosis, was measured on human primary neutrophils, isolated from fresh blood samples as described above or by Pancoll gradient centrifugation. Neutrophils in RPMI at 4×10^6 cells/ml were triggered to undergo NETosis in wells of a 96-well plate at a total cell number of 2×10^5 cells per well. The cells were treated for 3 hours with either the […] phorbol myristate acetate (100 nM PMA) or the bacterial product pyocyanin (at 10 μM). Extracellular DNA was measured by fluorometry using the dye Sytox™ Green and/or by fluorescence microscopy.
To investigate the effect of B2 on neutrophil NETosis, human primary neutrophils, isolated from fresh blood samples, were triggered to undergo NETosis (the expulsion of DNA in the environment) by treatment for 3 hours with either the […] phorbol myristate acetate (PMA) or the bacterial product pyocyanin. Extracellular DNA was measured by photometry using the dye Sytox™ Green.

The test system of data set [3] is primary human B cells. Nature of the data set: B lymphocyte IgE production (frequency of IgE+ B lymphocytes by FACS). The protocol: B2 was applied at 3 different concentrations, from left to right: 50, 20 and 10 μM. Average of >10 experiments is shown.
B lymphocyte IgE production: B lymphocyte IgE production was measured in line with that previously described by Audzevich et al. (2013). Briefly, primary human B cells isolated by the MACSxpress Buffy Coat Pan B Cell Isolation Kit (Miltenyi Biotec) from buffy coat were stimulated for 6 days by recombinant hCD40L (100 μg/ml) and IL-4 (50 ng/ml) at a cell density of 5×10^4 cells/ml. The frequency of IgE+B lymphocytes was determined by FACS at day 6 using anti CD19 and anti IgE antibodies.
To investigate inhibition of B lymphocyte IgE production by B2, the frequency of IgE+B lymphocytes was determined by FACS at day 6 of primary human B cell cultures isolated from fresh buffy coat and stimulated by CD40L and IL4.

Data set [4] has as its system primary human B lymphocytes. The data set is described as follows: B lymphocyte cytokine release (cytokine array). The following applies: CD40L and IL4; FIG. 9. Here is the method: The % reduction compared to the stimulated control is shown; average of 2 experiments.
B lymphocyte cytokine release: Primary human B lymphocytes isolated from fresh buffy coat were stimulated at a cell density of 5×10^5/ml in 1 ml by CD40L and IL4 for 5 days in a 24-well plate, and the levels of 105 cytokines in the cell culture supernatant were measured by the R&D Systems Human XL cytokine antibody array as per manufacturer's instructions. The signals were measured by a fluorescence-based photometric read-out in the Li—COR Odyssey Fluorescent imaging system, and the spots quantified by Fiji software.
To investigate the modulation of B lymphocyte cytokine release by B2, primary human B lymphocytes isolated from fresh buffy coat were stimulated by CD40L and IL4 for […] and the levels of 105 cytokines in the cell culture supernatant were measured by the R&D Systems Human XL cytokine array and a fluorescence-based photometric read-out.

Data set [5] deals with Primary human pulmonary microvascular endothelial cells (HPMEC). Nature of the data set: Neutrophil adhesion to endothelial cells. The following applies: 10, 20 and 50 μM B2, TNF-α stimulated HPMEC (FIG. 11). The text has this:
The number of adhered green-fluorescent labeled neutrophils per field of view normalized to the area covered by endothelial cells per field of view is shown. Three concentrations of B2 are shown next to the solvent (DMSO) control. An exemplary experiment out of three is shown.
Neutrophil adhesion to endothelial cells: Primary human pulmonary microvascular endothelial cells (HPMEC) were purchased from Promocell and maintained in endothelial cell media from Promocell as per the company's protocol. The endothelial cells were plated in flat bottom 96 well plastic plates at a concentration of 50,000 cells/well. After 24 h the endothelial cells were stimulated overnight by TNF-α (100 ng/ml) and the inhibitor. Neutrophils were isolated from whole blood using MACSxpress Neutrophil isolation kit. […] Samples were analyzed in triplicates and 3 fields of view were imaged per well. Cells per field of view were quantified using FiJi software.
To investigate the adhesion of neutrophils to endothelial cells, human primary neutrophils, were fluorescently labeled with 1 μM CellTracker dye and resuspended in HBS solution prior to addition of B2 or DMSO. Green fluorescent adherent cells were counted, the area covered by endothelial cell was measured, and the number of neutrophils adherent to endothelial cells normalized for the area covered by endothelial cells.

On to `Cc1onc(-c2ccccc2Cl)c1C(=O)Nc1nc2ccc([N+](=O)[O-])cc2s1` [B2, 3-(2-chlorophenyl)-5-methyl-N-(6-nitrobenzo[d]thiazol-2-yl)isoxazole-4-carboxamide], for which the “FACS-FRET signal, SWAP-70 dimerization at earlier time intervals” value in data set [1] (50 μM B2, 5-10 and 10-15 minutes after stimulation, B2 added 15 minutes prior) was “inhibition by 50 μM B2 at earlier time intervals”. In addition, the “FACS-FRET signal (FRET efficiency), SWAP-70 dimerization” value in data set [1] (50, 25 and 10 μM B2, 20 minutes after stimulation, B2 added 15 minutes prior) is “inhibition of the FACS-FRET signal”. The “SWAP-70 dimerization in living cells” value in data set [1] (293T cells, sodium vanadate activation) was “inhibits SWAP-70 dimerization in living cells”. The “neutrophil NETosis” value in data set [2] was “substantially reduced”. Besides, the “toxicity in B lymphocyte culture” value is “some toxicity was observed” in data set [3] (50 μM B2, day 6); “not observed” in data set [3] (lower concentrations than 50 μM (20 and 10 μM), day 6). Further, the “IgE production by primary human peripheral blood B lymphocytes” value in data set [3] (CD40L and IL4, day 6, FIG. 5 (50, 20, 10 μM)) is reported as “inhibits IgE production”. For the same molecule, in data set [4], the “B cell cytokine release profile” value was “reducing specific pro-inflammatory cytokines”. The “neutrophil adhesion to endothelial cells” value in data set [5] is recorded as “inhibition of neutrophil adhesion to endothelial cells”.
